Experimental data published in patent US9096615B2, “Bridged bicyclic amino thiazine dioxide compounds as inhibitors of beta-secretase and methods of use thereof” (AMGEN INC., priority 2013, dated 2015).
Like-named read-outs stand apart in the source and are kept apart here.

Experiments:
Abeta 40 = experiment: In vivo inhibition of beta-secretase: percent Abeta 40 reduction in CSF and brain; set-up: species or system rat; settings: 10 mpk, after 4 hrs
How it was run: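 Test compound was given by oral gavage in 2% HPMC, 1% Tween80, pH 2.2 (e.g., 30 mg/kg to male Sprague Dawley rats), or IV in 5% EtOH/45% propylene glycol in 5% dextrose. Four hours later, Abeta40 in CSF and in brain homogenate (DEA or Triton extraction) was measured by ECL sandwich ELISA (4G8 capture, Fab40 detection). Reduction is expressed relative to vehicle-treated animals.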

Cathepsin D (Cat D) = target: T1, Cathepsin D (Cat D) (Homo sapiens, UniProt P07339); experiment: In vitro enzymatic Cathepsin D (Cat D) FRET assay; format: biochemical; settings: average IC50; first procedure; read-out: CatD IC50
T1 construct: made in house; host or cells: CHO cells
How it was run: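 Recombinant human Cat D expressed in CHO cells, 9 nM, pre-incubated 1 h with inhibitor in 0.05 M citrate pH 3.5, 10% DMSO, 5 mM CHAPS. Reaction started with 20 nM FRET peptide substrate, run 1 h, stopped with Tris to neutral pH; fluorescence read at ex 500/em 580 nm.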

[1] = Abeta 40, rat CSF, read-out: % reduction of rat CSF levels at 10 pmk
[2] = Abeta 40, rat brain, read-out: % reduction of rat brain levels at 10 mpk

T1 sequence (P07339 65-412, species assumed): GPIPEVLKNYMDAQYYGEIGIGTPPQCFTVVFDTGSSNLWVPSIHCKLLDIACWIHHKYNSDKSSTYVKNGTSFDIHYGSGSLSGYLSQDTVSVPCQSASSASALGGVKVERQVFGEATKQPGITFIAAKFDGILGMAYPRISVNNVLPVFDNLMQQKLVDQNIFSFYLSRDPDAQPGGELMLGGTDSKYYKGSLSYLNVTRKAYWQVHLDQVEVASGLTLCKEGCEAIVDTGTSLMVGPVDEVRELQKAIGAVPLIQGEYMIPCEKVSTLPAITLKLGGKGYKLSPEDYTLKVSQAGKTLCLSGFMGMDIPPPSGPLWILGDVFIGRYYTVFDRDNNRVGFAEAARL

| Structure (SMILES) | IC50 (Cathepsin D (Cat D)) | inhibition in vivo at 10 mg/kg (Abeta 40; [1]) | inhibition in vivo at 10 mg/kg (Abeta 40; [2]) |
| --- | --- | --- | --- |
| C[C@]1(c2cc(Nc3nccc4nc(OCc5ncco5)cnc34)ccc2F)N=C(N)[C@@]2(CF)CC[C@@H]1S2(=O)=O [Example 104, N-(3-((1S,2R,5R)-4-amino-5-(fluoromethyl)-2-methyl-8,8-dioxido-8-thia-3-azabicyclo[3.2.1]oct-3-en-2-yl)-4-fluorophenyl)-2-(1,3-oxazol-2-ylmethoxy)pyrido[3,4-b]pyrazin-5-amine] | 799 µM | 74% | 71% |
| COc1cnc(C(=O)Nc2ccc(F)c([C@@]3(C)N=C(N)[C@@]4(C)CC[C@@H]3S4(=O)=O)c2)cn1 [Example 61, N-(3-((1S,2R,5R)-4-amino-2,5-dimethyl-8,8-dioxido-8-thia-3-azabicyclo[3.2.1]oct-3-en-2-yl)-4-fluorophenyl)-5-methoxy-2-pyrazinecarboxamide] | 2500 µM | 80% | 79% |
| COc1cnc2c(Nc3ccc(F)c([C@@]4(C)N=C(N)[C@@]5(CF)CC[C@@H]4S5(=O)=O)c3)nccc2n1 [Example 41, N-(3-((1S,2R,5R)-4-amino-5-(fluoromethyl)-2-methyl-8,8-dioxido-8-thia-3-azabicyclo[3.2.1]oct-3-en-2-yl)-4-fluorophenyl)-2-methoxypyrido[3,4-b]pyrazin-5-amine] | 867 µM | 76% | 62% |

Continued by falling IC50 (Cathepsin D (Cat D)), values first:

| IC50 (Cathepsin D (Cat D)) | Structure (SMILES) | inhibition in vivo at 10 mg/kg (Abeta 40; [1]) | inhibition in vivo at 10 mg/kg (Abeta 40; [2]) |
| --- | --- | --- | --- |
| 855 µM | C[C@]1(c2cc(Nc3nccc4nc(OCc5ncco5)cnc34)ccc2F)N=C(N)[C@@]2(C)CC[C@@H]1S2(=O)=O [Example 140, N-(3-((1S,2R,5R)-4-amino-2,5-dimethyl-8,8-dioxido-8-thia-3-azabicyclo[3.2.1]oct-3-en-2-yl)-4-fluorophenyl)-2-(1,3-oxazol-2-ylmethoxy)pyrido[3,4-b]pyrazin-5-amine] | 41% | 39% |
| 570 µM | C[C@]1(c2cc(NC(=O)c3ccc(Cl)cn3)ccc2F)N=C(N)[C@@]2(CF)CC[C@@H]1S2(=O)=O [Example 77, N-(3-((1S,2R,5R)-4-amino-5-(fluoromethyl)-2-methyl-8,8-dioxido-8-thia-3-azabicyclo[3.2.1]oct-3-en-2-yl)-4-fluorophenyl)-5-chloro-2-pyridinecarboxamide] | 77% | 67% |
| 317 µM | C[C@]1(c2cc(Nc3ncnc4cc(C(F)(F)F)cnc34)ccc2F)N=C(N)[C@@]2(C)CC[C@@H]1S2(=O)=O [Example 106, N-(3-((1S,2R,5R)-4-amino-2,5-dimethyl-8,8-dioxido-8-thia-3-azabicyclo[3.2.1]oct-3-en-2-yl)-4-fluorophenyl)-7-(trifluoromethyl)pyrido[3,2-d]pyrimidin-4-amine] | 59% | 29% |
